EC50, inhibition in vivo and inhibition data for 14 compounds are collected here from ChEMBL document CHEMBL3600312, “Novel Oxazolidinone-Based Peroxisome Proliferator Activated Receptor Agonists: Molecular Modeling, Synthesis, and Biological Evaluation” (J Med Chem, 2015).

In assay [1] the target is T1, Peroxisome proliferator-activated receptor alpha (Homo sapiens, UniProt Q07869).
T1 sequence (Q07869 whole entry): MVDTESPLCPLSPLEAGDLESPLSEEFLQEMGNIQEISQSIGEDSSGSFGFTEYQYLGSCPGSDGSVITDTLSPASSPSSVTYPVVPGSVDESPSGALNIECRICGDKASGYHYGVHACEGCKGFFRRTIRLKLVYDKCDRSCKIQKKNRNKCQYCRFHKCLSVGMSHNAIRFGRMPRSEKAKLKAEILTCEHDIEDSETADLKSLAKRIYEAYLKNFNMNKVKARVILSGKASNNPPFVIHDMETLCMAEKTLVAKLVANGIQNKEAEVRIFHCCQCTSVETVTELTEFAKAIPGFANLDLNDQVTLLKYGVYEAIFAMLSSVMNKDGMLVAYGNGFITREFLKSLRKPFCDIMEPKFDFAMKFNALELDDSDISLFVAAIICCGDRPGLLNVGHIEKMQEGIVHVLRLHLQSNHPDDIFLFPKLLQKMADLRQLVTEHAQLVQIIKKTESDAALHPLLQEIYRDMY
As to the kind of experiment: Agonist activity at human PPARalpha transfected in human MCF7 cells after 16 hrs by luciferase reporter gene assay. It is filed as cell-based. Background: Reporter assays use an easily measured gene product as a stand-in for the process of interest.

Assay [2] relates to Rattus norvegicus. Nature of the assay: Inhibition of food intake in 24 hrs food derived obese Wistar rat at 3 mg/kg, ip measured up to 120 mins relative to vehicle-treated control. Type of assay: functional.
Assay [3] deals with Rattus norvegicus. As to the kind of experiment: Inhibition of food intake in ip dosed 24 hrs food derived obese Wistar rat after 30 to 240 mins. It is filed as functional, organism-based.
Assay [4] has as its system Rattus norvegicus. Nature of the assay: Inhibition of food intake in 24 hrs food derived obese Wistar rat at 3 mg/kg, ip after 240 mins. It is filed as functional, organism-based.
Assay [5] addresses T2, Peroxisome proliferator-activated receptor gamma (Homo sapiens, UniProt P37231).
T2 sequence (P37231 whole entry): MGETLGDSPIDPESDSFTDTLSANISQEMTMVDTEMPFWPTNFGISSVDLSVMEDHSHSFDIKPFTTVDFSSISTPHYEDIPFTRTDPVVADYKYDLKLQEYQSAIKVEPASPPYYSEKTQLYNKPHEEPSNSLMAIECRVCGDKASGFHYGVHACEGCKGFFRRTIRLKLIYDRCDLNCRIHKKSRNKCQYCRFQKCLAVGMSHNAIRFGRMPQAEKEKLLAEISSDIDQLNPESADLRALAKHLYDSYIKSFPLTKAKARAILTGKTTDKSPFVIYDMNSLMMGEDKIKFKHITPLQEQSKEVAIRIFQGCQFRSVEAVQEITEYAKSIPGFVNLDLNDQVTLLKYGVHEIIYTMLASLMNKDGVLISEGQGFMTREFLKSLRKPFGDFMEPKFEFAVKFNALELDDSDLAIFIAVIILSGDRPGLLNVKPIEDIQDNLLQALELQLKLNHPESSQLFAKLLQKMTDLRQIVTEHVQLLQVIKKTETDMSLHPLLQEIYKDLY
As to the kind of experiment: Agonist activity at human PPARgamma transfected in human MCF7 cells after 16 hrs by luciferase reporter gene assay. Type of assay: cell-based.

Assay [6] has as its system Rattus norvegicus. Nature of the assay: Inhibition of food intake in ip dosed 24 hrs food derived obese Wistar rat after 24 hrs. It is filed as functional, organism-based.

Activity calls are given as the source filed them. No cut-off for these calls is given here.

With `C[C@@H](Cc1cccc(NC(=O)c2ccc(NC(=O)Cc3ccc(C(C)(C)C)cc3)cc2)c1)C(=O)O`, in assay [1], a half-maximal effect (EC50) was put at 866 nM. That is a sub-micromolar value.
The compound `CC(C)(C)c1ccc(CNC(=O)c2ccc(NC(=O)c3cccc(CN4C(=O)OC[C@H]4Cc4ccccc4)c3)cc2)cc1` gave an inhibition in vivo at 3 mg/kg in the assay on Rattus norvegicus [2] of 50%. The inhibition entry in the assay on Rattus norvegicus [3] is “Dose-dependent effect”. The inhibition result in the assay on Rattus norvegicus [4] was “inactive”.
Take `O=C(NCC1CCCCC1)c1ccc(NC(=O)c2cccc(CN3C(=O)OC[C@H]3Cc3ccccc3)c2)cc1`: the concentration for a half-maximal effect (EC50) in assay [1] and in assay [5] was over 100000 nM in each case.
As for `CCCCCNC(=O)c1ccc(NC(=O)c2cccc(CN3C(=O)OC[C@H]3Cc3ccccc3)c2)cc1`, the inhibition entry in the assay with Rattus norvegicus [6] and in the assay on Rattus norvegicus [3] was “Dose-dependent effect” in each case.
For `O=C(NCc1ccc(C(F)(F)F)cc1)c1ccc(NC(=O)c2cccc(CN3C(=O)OC[C@@H]3Cc3ccccc3)c2)cc1`, the half-maximal effective concentration (EC50) in assay [1] was over 100000 nM.
In turn, `CCCCCC(=O)Nc1ccc(C(=O)Nc2cccc(C[C@H](C)C(=O)N3C(=O)OC[C@H]3Cc3ccccc3)c2)cc1` returned an EC50 in assay [1] of 1920 nM.
Take `CCCCCC(=O)Nc1ccc(C(=O)Nc2cccc(C[C@H](C)C(=O)O)c2)cc1`: the EC50 in assay [1] was found to be 981 nM. Compared with the last compound, the EC50 is about 2-fold lower.
In turn, `CCCCCNC(=O)c1ccc(NC(=O)c2cccc(CN3C(=O)OC[C@@H]3Cc3ccccc3)c2)cc1` yielded an EC50 in assay [1] of over 100000 nM.
As for `CC(C)(C)c1ccc(CNC(=O)c2ccc(NC(=O)c3cccc(CN4C(=O)OC[C@@H]4Cc4ccccc4)c3)cc2)cc1`, the EC50 in assay [1] was 756 nM.
`CCCCCCCCCCCCNC(=O)c1ccc(NC(=O)c2cccc(CN3C(=O)OC[C@H]3Cc3ccccc3)c2)cc1`: the values for the EC50 in assay [1] and in assay [5] were 6620 nM and over 100000 nM, respectively.
`O=C(Nc1ccc(C(=O)NC2CC2)cc1)c1cccc(CN2C(=O)OC[C@H]2Cc2ccccc2)c1`: the response in assay [1] was half-maximal at 1980 nM (EC50).
For the compound `O=C(NCc1ccc(C(F)(F)F)cc1)c1ccc(NC(=O)c2cccc(CN3C(=O)OC[C@H]3Cc3ccccc3)c2)cc1`, the 50% effective concentration (EC50) in assay [1] and in assay [5] was over 100000 nM each time.
Turning to `O=C(NCc1ccccc1)c1ccc(NC(=O)c2cccc(CN3C(=O)OC[C@H]3Cc3ccccc3)c2)cc1`, the EC50 in assay [1] and in assay [5] was over 100000 nM throughout.
Regarding `C[C@@H](Cc1cccc(NC(=O)c2ccc(NC(=O)Cc3ccc(C(C)(C)C)cc3)cc2)c1)C(=O)N1C(=O)OC[C@H]1Cc1ccccc1`, in assay [1], a half-maximal effect (EC50) was put at 966 nM. In other words, the sub-micromolar range.

Broadly, the EC50 is the concentration giving half of the maximal effect. A high value points to a less potent agent. In general, inhibition in vivo refers to the relative decrease from the control value, in per cent. A high value points to a response far below the control.
